Legend:
[1] = molecular target: T1, IDO1 (Homo sapiens, UniProt P14902); experiment: IDO1 Human Whole Blood Assay; type: cell-based; set-up: Human whole blood was drawn in sodium heparin coated tubes from healthy internal donors; from tissue; host or cells: Human whole blood from healthy donors, stimulated with LPS and IFNγ; conditions: LPS and IFNγ 100 ng/mL, 18 h, kynurenine by LC/MS/MS
Description: IDO1 Human Whole Blood Assay
Compounds to be tested were serially diluted in ten 3-fold steps in DMSO starting from 10 mM. 3 µL of compound dilutions or DMSO alone were then dispensed from the dilution plate into a polypropylene 96-well assay plate containing 97 µL of RPMI medium using an Echo 555 acoustic liquid handler (Labcyte). LPS (lipopolysaccharide) and IFNγ was prepared in RPMI to a 10× of final conc. (1000 ng/mL), final concentration is 100 ng/mL.
Human whole blood was drawn in sodium heparin coated tubes from healthy internal donors. 240 µL of blood was transferred to each of the wells of a v-bottom 96 well plate. 30 µL of compound was transferred from intermediate dilution plate, and incubated for 15 min. 30 μL from stimulants was then transferred to blood and mixed thoroughly. Plate was covered with breathable membrane and incubated at 37° C. for overnight (18 h).
On day 2, isotope labeled standard solutions of kunurenine and tryptophan was made in water at 10× concentration and 30 µL was added to the blood at 3 µM final concentration. The assay plates were centrifuged at 300×G for 10 min with no brake to separate plasma from red blood cells. 60 µL of plasma samples was removed without disturbing red blood cells. Plasma was diluted with RPMI medium in 1:1 ratio and proteins were precipitated out with two volumes of Acetonitrile. The plates were centrifuged at 4000×G for 60 min. 20 µL of supernatant was carefully transferred to a 384 well plate containing 40 µL of 0.1% formic acid in water and analyzed by LC/MS/MS.
LC/MS/MS analyses were performed using Thermo Fisher's LX4-TSQ Quantum Ultra system. This system consists of four Agilent binary high-performance liquid chromatography (HPLC) pumps and a TSQ Quantum Ultra triple quadrupole MS/MS instrument. For each sample, 5 µL were injected onto an Atlantis T3 column (2.1 mm×150 mm, 3 µm particle size) from Waters. The mobile phase gradient pumped at 0.8 mL/min was used to elute the analytes from the column at 25° C. The elution started at 0% B increasing linearly to 25% B at 6.5 min, holding at 25% for 1 min, re-equilibrating to 10 min. Mobile phase A consisted of 0.1% formic acid in water. Mobile phase B consisted of 0.1% of formic acid in acetonitrile. Data was acquired in positive mode using a HESI interface. The operational parameters for the TSQ Quantum Ultra instrument were a spray voltage of 4000 V, capillary temperature of 380° C., vaporizer temperature 400° C., shealth gas 60 arbitrary units, Aux gas 20 arbitrary units, tube lens 85 and collision gas 1.2 mTorr. SRM (selected-reaction monitoring) chromatograms of kynurenine (Q1: 209.2>Q3:94.0) and internal standard (Q1: 215.3>Q3:98.2) were collected for 90 sec. The peak area was integrated by Xcalibur Quan software. The ratios between the kynurenine generated in the reaction and 2D6-Kynurenine spiked-in internal standard were used to generate percentage inhibition and IC50 values. Compounds were titrated and IC50's were calculated by 4 parameter sigmoidal curve fitting formula.

[2] = molecular target: T1, IDO1; experiment: IDO1 Cellular Assay in HeLa Cells Stimulated with IFNγ; type: cell-based; conditions: IFNγ 100 ng/mL, 300 uM L-tryptophan, about 48 hours, read-out: IDO HeLa Cell Assay, IC50
Description: Biological Assays IDO1 Cellular Assay in HeLa Cells Stimulated with IFNγ
HeLa cells were cultured in complete HeLa culture medium (90% EMEM, 10% heat-inactivated fetal bovine serum) and expanded to about 1×10^9 cells. The cells were then collected and frozen down at 1×10^7 cells/vial in 1 mL frozen medium (90% complete HeLa culture medium, 10% DMSO).
Compounds to be tested were serially diluted in ten 3-fold steps in DMSO starting from 10 mM DMSO stocks in Echo low volume plate(s). Compound dilutions or DMSO alone were then dispensed from the dilution plate(s) into Greiner black 384-well assay plate(s) (catalog #781086, 50 nL/well) using an Echo 550 acoustic liquid handler (Labcyte).
Frozen HeLa cells were thawed and transferred into HeLa assay medium (99% complete HeLa culture medium, 1% Pen/Strep) with 20 mL medium/vial of cells. The cells were spun down at 250 g in a table top centrifuge for 5 min and suspended in same volume of HeLa assay medium. The cells were then counted and adjusted to a density of 2×10^5 cells/mL in HeLa assay medium. Sterile L-tryptophan were added to the cells with final concentration of 300 uM L-tryptophan. A small aliquot (2 mL/plate) of HeLa cells were set aside and were not treated with IFNγ, to serve as the Max-E control.
HeLa cells with and without IFNγ were dispensed to the respective wells of 384-well assay plates containing the compounds. The plates were incubated for about 48 hours at a 37° C., 5% CO2 incubator. Afterwards, 12 μL of 0.5 M methyl isonipecotate in dimethyl sulfoxide were added into each well and the plates were sealed and incubated at 37° C. without CO2 overnight. The plates were centrifuged for 1 min at 200×g. The resulting fluorescence was measured in a Spectramax plate reader (Molecular Devices) with a 400 nm excitation filter and a 510 nm emission filter.
The fluorescence intensity of each well was corrected for the background observed in wells with non-IFNγ-treated cells and was expressed as a fraction of the intensity observed in wells of IFNγ-treated cells and DMSO only. Potencies were calculated by linear least squares fit to the four parameter logistic IC50 equation.

T1 sequence (P14902 whole entry): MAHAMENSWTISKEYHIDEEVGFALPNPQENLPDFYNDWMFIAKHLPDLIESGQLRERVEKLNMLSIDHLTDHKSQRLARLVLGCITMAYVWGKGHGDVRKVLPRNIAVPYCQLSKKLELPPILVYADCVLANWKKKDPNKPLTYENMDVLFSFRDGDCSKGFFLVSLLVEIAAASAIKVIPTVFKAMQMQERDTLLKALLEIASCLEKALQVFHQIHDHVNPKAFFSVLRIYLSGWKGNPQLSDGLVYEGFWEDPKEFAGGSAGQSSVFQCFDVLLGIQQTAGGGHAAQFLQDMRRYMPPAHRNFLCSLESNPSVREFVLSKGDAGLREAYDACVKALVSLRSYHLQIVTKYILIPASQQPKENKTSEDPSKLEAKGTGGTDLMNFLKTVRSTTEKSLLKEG

SMILES	IC50 [1] [nM]	IC50 [2] [nM]
Cc1cc(OC(F)F)nc(C)c1-c1ccc(C2(c3nc4cc(Cl)ccc4[nH]3)CCC2)cc1 [Example 48, 5-chloro-2-(1-{4-[6-(difluoromethoxy)-2,4-dimethylpyridin-3-yl]phenyl}cyclobutyl)-1H-benzimidazole]	130	2.44
CC(C)(O)c1cc(C(F)(F)F)ncc1-c1ccc(C2(c3nc4cc(Cl)ccc4[nH]3)CCC2)cc1 [Example 49, 2-[5-{4-[1-(5-chloro-1H-benzimidazol-2-yl)cyclobutyl]phenyl}-2-(trifluoromethyl)pyridin-4-yl]propan-2-ol]	72.9	1.7
OCc1cc(C(F)(F)F)ncc1-c1ccc(C2(c3nc4ncc(Cl)cc4[nH]3)COC2)cc1 [Example 50, (5-(4-(3-(6-chloro-1H-imidazo[4,5-b]pyridin-2-yl)oxetan-3-yl)phenyl)-2-(trifluoromethyl)pyridin-4-yl)methanol]	4040	3.03
OCc1cc(C(F)(F)F)ncc1-c1ccc(C2(c3nc4ccc(Cl)cc4[nH]3)COC2)cc1 [Example 51, [5-{4-[3-(6-chloro-1H-benzimidazol-2-yl)oxetan-3-yl]phenyl}-2-(trifluoromethyl)pyridin-4-yl]methanol]	284	1.76
OCc1cc(C(F)(F)F)ncc1-c1ccc(C2(c3nc4ccc(Cl)cc4[nH]3)CCC2)cc1 [Example 52, [5-{4-[1-(6-chloro-1H-benzimidazol-2-yl)cyclobutyl]phenyl}-2-(trifluoromethyl)pyridin-4-yl]methanol]	91	1.1

From patent US11208407B2, “Substituted phenyl compounds as indoleamine 2,3-dioxygenase (IDO) inhibitors” (Merck Sharp & Dohme Corp., priority 2017, dated 2021)
